In patent US12421254B2, “KRAS modulators and uses thereof” (Quanta Therapeutics, Inc., priority 2023, dated 2025):
pIC50: −log10 of the molar value.

Key:
[1] = biological target: GST-tagged KRAS-G12V (2-169) (Homo sapiens, UniProt P01116, G12V); assay: Nucleotide exchange assay (NEA), SOS-mediated, HTRF, KRAS G12V; format: biochemical; conditions: Table 4; IC50 extracted at 90 min; 80 nM SOS
Outline: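 GST-KRAS-G12V (2-169), 0.25 nM, pre-incubated 1 h at RT with compound, then SOS1cat (564-1049) 80 nM and GTP-DY-647P1 150 nM added in HEPES pH 7.3 buffer with MgCl2 and DTT. HTRF via anti-GST Tb cryptate read over 90 min; IC50 from 4-parameter fit at 90 min, blanked to no-SOS reactions.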

w.t. KRAS/RAF1 = biological target: T1, w.t. KRAS/RAF1 (Homo sapiens, UniProt P01116); assay: Protein-protein interaction (PPI) HTRF assay w.t. KRAS/RAF1; format: binding; conditions: Table 3; wt KRAS/RAF1
T1 construct: KRAS (1-169) proteins were expressed in BL21 (DE3)-CodonPlus E. coli; His6-MBP (N, cleaved yes)
Description: When RAS proteins are in the active GTP-bound conformation, they bind the effector protein RAF1 at the N-terminus Ras-binding domain (RBD, residues 52-131) (Tran, et al., 2021). Homogenous time resolved fluorescence (HTRF) was used to monitor the interaction between wt or mutant KRAS and RAF1 or wt NRAS and RAF1. Compounds were assayed in the presence of KRAS G12D/V and RAF1 versus wt KRAS to assess activity against mutant and w.t. KRAS. Similarly, compounds were then assayed in the presence of w.t. NRAS and RAF1 to assess RAS isoform selectivity. In all assay formats, His-tagged RAF1 protein was incubated with the HTRF donor, anti-6His Tb Cryptate gold (Cisbio 61DB10RDF), and biotinylated RAS proteins were incubated with the HTRF acceptor, streptavidin-d2 (CisBio 610SADLA). The intensity of the fluorescence signal emitted is proportional to binding between the two proteins. The donor solution was prepared by mixing 16 nM His-tagged RAF1 in protein dilution buffer with 1:100 anti-6His Tb cryptate in PPI-Terbium detection buffer. 16 nM biotinylated RAS protein was diluted into protein dilution buffer (50 mM Tris-HCl pH 7.5, 150 mM NaCl, 0.1 mM MgCl2, 1 mM TCEP, 0.005% Tween20) and mixed with 1:2000 Streptavidin-d2 diluted in PPI-Terbium detection buffer (CisBio 61DB10RDF). 50× compound in DMSO was mixed with 16 nM KRAS-acceptor solution and incubated for 30 minutes at room temperature. After compound pre-incubation with KRAS, the RAF1 donor solution was added to the KRAS-acceptor solution and incubated for 1 hour at room temperature. The fluorescence signal emitted was monitored at 665 nm and 615 nm using an Envision multimode plate reader. The HTRF ratio (665/615) was calculated and normalized to 0% inhibition in the absence of compound and 100% inhibition in the presence of untagged RAF1 protein. PPI KRAS G12D/RAF1, KRAS G12V/RAF1, w.t. KRAS/RAF1 and NRAS/RAF1 IC50 (uM) values of selected compounds are depicted in Table 3 and Table 4 with compounds having a value <0.1 uM as ++++; ≥0.1 uM to 1 uM as +++; ≥1 uM to 10 uM as ++; ≥10 uM to 100 uM as +; and ≥100 uM as NA.

KRAS G12D/RAF1 = biological target: T2, KRAS G12D/RAF1 (Homo sapiens, UniProt P01116, G12D); assay: Protein-protein interaction (PPI) HTRF assay KRAS G12D/RAF1; format: binding; conditions: Table 2
T2 construct: KRAS (1-169) proteins were expressed in BL21 (DE3)-CodonPlus E. coli; His6-MBP (N, cleaved yes)

KRAS G12V/RAF1 = biological target: T3, KRAS G12V/RAF1 (Homo sapiens, UniProt P01116, G12V); assay: Protein-protein interaction (PPI) HTRF assay KRAS G12V/RAF1; format: binding; conditions: Table 3
T3 construct: KRAS (1-169) proteins were expressed in BL21 (DE3)-CodonPlus E. coli; His6-MBP (N, cleaved yes)
T3 sequence (P01116 with tags, fused parts or gaps isoform P01116-2 G12V): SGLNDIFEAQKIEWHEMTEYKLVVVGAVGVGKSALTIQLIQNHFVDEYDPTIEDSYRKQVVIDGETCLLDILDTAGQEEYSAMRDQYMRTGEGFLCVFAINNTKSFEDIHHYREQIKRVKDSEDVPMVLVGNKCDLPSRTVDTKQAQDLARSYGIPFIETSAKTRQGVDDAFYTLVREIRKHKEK

T1 sequence (P01116 with tags, fused parts or gaps isoform P01116-2): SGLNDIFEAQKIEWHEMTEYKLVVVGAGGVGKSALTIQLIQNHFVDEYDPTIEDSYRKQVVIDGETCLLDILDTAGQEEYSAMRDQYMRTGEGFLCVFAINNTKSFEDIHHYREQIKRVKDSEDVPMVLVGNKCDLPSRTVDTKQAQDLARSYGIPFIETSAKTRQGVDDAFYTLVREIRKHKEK
T2 sequence (P01116 with tags, fused parts or gaps isoform P01116-2 G12D): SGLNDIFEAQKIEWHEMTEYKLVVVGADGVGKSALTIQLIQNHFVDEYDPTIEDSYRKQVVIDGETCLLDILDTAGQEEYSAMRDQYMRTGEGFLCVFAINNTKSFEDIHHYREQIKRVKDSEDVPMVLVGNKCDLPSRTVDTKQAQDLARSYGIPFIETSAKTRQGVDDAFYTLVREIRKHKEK
GST-tagged KRAS-G12V (2-169), sequence (P01116 2-169 isoform P01116-2 G12V): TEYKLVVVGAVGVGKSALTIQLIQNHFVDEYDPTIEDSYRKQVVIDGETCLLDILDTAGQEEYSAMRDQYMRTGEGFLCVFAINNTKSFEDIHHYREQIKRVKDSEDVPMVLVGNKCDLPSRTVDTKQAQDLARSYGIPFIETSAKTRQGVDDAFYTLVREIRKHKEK

Row | Structure (SMILES) | pIC50 [1] | IC50 (w.t. KRAS/RAF1) | IC50 (KRAS G12D/RAF1) | IC50 (KRAS G12V/RAF1)
1 | N#Cc1c(N)sc2c1C1(CC2)CN(c2nc(OCC3(CN4CCOCC4)CC3)nc(N3CCCC4(C3)NC(=O)NC4=O)n2)C1 (stereo not drawn) [Compound 7, 2-amino-1′-[4-(2,4-dioxo-1,3,9-triazaspiro[4.5]decan-9-yl)-6-[[1-(morpholinomethyl)cyclopropyl]methoxy]-1,3,5-triazin-2-yl]spiro[5,6-dihydrocyclopenta[b]thiophene-4,3′-azetidine]-3-carbonitrile] | > 8.00 | 0.1 to 1 µM | 0.1 to 1 µM | 0.1 to 1 µM
2 | N#Cc1c(N)sc2c1C1(CCC2)CN(c2nc(OCC3(CN4CCOCC4)CC3)nc(N3C[C@H]4CC[C@@H](C3)N4)n2)C1 [Compound 3, 2-amino-1′-[4-[(1R,5S)-3,8-diazabicyclo[3.2.1]octan-3-yl]-6-[[1-(morpholinomethyl)cyclopropyl]methoxy]-1,3,5-triazin-2-yl]spiro[6,7-dihydro-5H-benzothiophene-4,3′-azetidine]-3-carbonitrile] | 6.00 to 7.00 | 1 to 10 µM | 1 to 10 µM | 10 to 100 µM
3 | C[C@@]1(O)CCCN(c2nc(OC[C@@]34CCCN3C[C@H](F)C4)nc(N3CC4(CCc5sc(N)c(C#N)c54)C3)n2)C1 [Compound 10, 2-amino-1′-[4-[[(2R,8S)-2-fluoro-1,2,3,5,6,7-hexahydropyrrolizin-8-yl]methoxy]-6-[(3R)-3-hydroxy-3-methyl-1-piperidyl]-1,3,5-triazin-2-yl]spiro[5,6-dihydrocyclopenta[b]thiophene-4,3′-azetidine]-3-carbonitrile] | > 8.00 | 1 to 10 µM | 1 to 10 µM | 1 to 10 µM
4 | N#Cc1c(N)sc2c1C1(CC2)CN(c2nc(OCC3(CN4CCOCC4)CC3)nc(N3C[C@H]4CC[C@@H](C3)N4)n2)C1 [Compound 2, 2-amino-1′-[4-[[1-(morpholinomethyl)cyclopropyl]methoxy]-6-[(1R,5S)-3,8-diazabicyclo[3.2.1]octan-3-yl]-1,3,5-triazin-2-yl]spiro[5,6-dihydrocyclopenta[b]thiophene-4,3′-azetidine]-3-carbonitrile] | 6.00 to 7.00 | 1 to 10 µM | 1 to 10 µM | 1 to 10 µM
5 | N#Cc1c(N)sc2c1C1(CC2)CN(c2nc(OCC34CCCN3CC(F)C4)nc(N3CC4CCC(C3)N4)n2)C1 [Compound 1, 2-amino-1′-[4-(3,8-diazabicyclo[3.2.1]octan-3-yl)-6-[[(2R,8S)-2-fluoro-1,2,3,5,6,7-hexahydropyrrolizin-8-yl]methoxy]-1,3,5-triazin-2-yl]spiro[5,6-dihydrocyclopenta[b]thiophene-4,3′-azetidine]-3-carbonitrile] | 7.00 to 8.00 | 1 to 10 µM | 0.1 to 1 µM | 0.1 to 1 µM
6 | N#Cc1c(N)sc2c1C1(CC2)CN(c2nc(OC[C@@]34CCCN3C[C@H](F)C4)nc(N3CCCC(C#N)C3)n2)C1 (stereo partly drawn) [Compound 13, 2-amino-1′-[4-(3-cyano-1-piperidyl)-6-[[(2R,8S)-2-fluoro-1,2,3,5,6,7-hexahydropyrrolizin-8-yl]methoxy]-1,3,5-triazin-2-yl]spiro[5,6-dihydrocyclopenta[b]thiophene-4,3′-azetidine]-3-carbonitrile] | 7.00 to 8.00 | 1 to 10 µM | 1 to 10 µM | 1 to 10 µM
